The supplement of paper PMC7840683
Where a name gives a salt, the structure may show the parent alone.

System: HepaRG
Assay: LDH release cytotoxicity, % of total lysis control; higher = more cytotoxic
Conditions: 48 h
How it was run: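 HepaRG cells from a single lot were plated on collagen I-coated 96-well plates and treated in duplicate for 48 h with eight-point half-log series of test chemicals, starting at 100 µM, in serum-free induction medium containing 0.5% DMSO. Total lysis wells were given 0.1% Triton X. LDH released into 50 µL of spent medium was measured as resorufin fluorescence with CytoTox-ONE on a Tecan Safire. Percent cytotoxicity was normalized to on-plate vehicle and total lysis controls and then averaged across duplicates.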

COc1ccc(O)c(C(C)(C)C)c1 [2-tert-Butyl-4-methoxyphenol]
Conditions	LDH release cytotoxicity [%]
0.03162 µM	-1.55
0.1 µM	-1.18
0.3162278 µM	0.0233
1 µM	0.0291
3.16228 µM	0.0384
10 µM	0.94
31.6228 µM	1.15
100 µM	2.22

CC(C)(C)c1ccccc1O [2-tert-Butylphenol]
Conditions	LDH release cytotoxicity [%]
0.03162 µM	-1.05
0.1 µM	-1.24
0.3162278 µM	-1.22
1 µM	-1.31
3.16228 µM	-0.599
10 µM	-0.21
31.6228 µM	-0.521
100 µM	0.121

C/C=C/C=C/C(=O)O [2E,4E-Hexadienoic acid]
Conditions	LDH release cytotoxicity [%]
0.03162 µM	-0.745
0.1 µM	-1.89
0.3162278 µM	-1.82
1 µM	-1.07
3.16228 µM	-1.03
10 µM	-1.19
31.6228 µM	-0.323
100 µM	0.653

Cc1cn(C2CC(N=[N+]=[N-])C(CO)O2)c(=O)nc1O (configuration not stated) [3'-Azido-3'-deoxythymidine]
Conditions	LDH release cytotoxicity [%]
0.03162 µM	-0.42
0.1 µM	-0.0584
0.3162278 µM	-1.1
1 µM	-0.757
3.16228 µM	-0.57
10 µM	-0.541
31.6228 µM	-0.814
100 µM	-0.709

CC(C)(c1cc(Br)c(O)c(Br)c1)c1cc(Br)c(O)c(Br)c1 [3,3',5,5'-Tetrabromobisphenol A]
Conditions	LDH release cytotoxicity [%]
0.03162 µM	-1.12
0.1 µM	-1.08
0.3162278 µM	-0.948
1 µM	-1.1
3.16228 µM	-0.766
10 µM	-0.155
31.6228 µM	0.933
100 µM	3.36

COc1cc(-c2ccc(N)c(OC)c2)ccc1N [3,3'-Dimethoxybenzidine dihydrochloride]
Conditions	LDH release cytotoxicity [%]
0.03162 µM	-1.44
0.1 µM	-1.17
0.3162278 µM	-1.43
1 µM	-2.08
3.16228 µM	-1.15
10 µM	-0.317
31.6228 µM	0.438
100 µM	3.4

COc1cc(-c2ccc(N)c(OC)c2)ccc1N [3,3'-Dimethoxybenzidine]
Conditions	LDH release cytotoxicity [%]
0.03162 µM	-2.67
0.1 µM	-2.03
0.3162278 µM	-2.61
1 µM	-2.72
3.16228 µM	-1.97
10 µM	-2.38
31.6228 µM	-2.12
100 µM	-0.532

Cc1cc(-c2ccc(N)c(C)c2)ccc1N [3,3'-Dimethylbenzidine]
Conditions	LDH release cytotoxicity [%]
0.03162 µM	-0.774
0.1 µM	-1.43
0.3162278 µM	-1.35
1 µM	-1.27
3.16228 µM	-0.397
10 µM	-0.218
31.6228 µM	2.22
100 µM	5.88

Cc1ccc(N)c(N)c1 [3,4-Diaminotoluene]
Conditions	LDH release cytotoxicity [%]
0.0317809 µM	-0.96
0.1005 µM	-0.403
0.317809 µM	-1.27
1.005 µM	-0.97
3.17809 µM	-0.641
10.05 µM	-0.448
31.7809 µM	-0.415
100.5 µM	0.704

O=[N+]([O-])c1ccc(Cl)c(Cl)c1 [3,4-Dichloronitrobenzene]
Conditions	LDH release cytotoxicity [%]
0.03162 µM	-2.51
0.1 µM	-2.5
0.3162278 µM	-2.72
1 µM	-3.32
3.16228 µM	-2.26
10 µM	-2.3
31.6228 µM	-1.86
100 µM	-0.0607

NC(Cc1cc(I)c(Oc2ccc(O)c(I)c2)c(I)c1)C(=O)O (configuration not stated) [3,5,3'-Triiodothyronine]
Conditions	LDH release cytotoxicity [%]
0.031623 µM	-1.22
0.1 µM	-3.18
0.316228 µM	-4.73
1 µM	-4.06
3.16228 µM	-3.84
10 µM	-3.581
31.6228 µM	-2.69
100 µM	0.489

CC(C)=CCCC(C)=CC=O [3,7-Dimethyl-2,6-octadienal]
Conditions	LDH release cytotoxicity [%]
0.03162 µM	-1.99
0.1 µM	-2.58
0.3162278 µM	-1.66
1 µM	-2.25
3.16228 µM	-0.875
10 µM	-0.825
31.6228 µM	-0.501
100 µM	0.215

OCCCBr [3-Bromo-1-propanol]
Conditions	LDH release cytotoxicity [%]
0.03162 µM	0.25
0.1 µM	-0.845
0.3162278 µM	-1.144
1 µM	-0.314
3.16228 µM	-0.692
10 µM	-0.0559
31.6228 µM	-0.26
100 µM	9.22

Oc1ccc2c(c1)-c1ccccc1C2 [3-Hydroxyfluorene]
Conditions	LDH release cytotoxicity [%]
0.03162 µM	-1.48
0.1 µM	-1.06
0.3162278 µM	-0.414
1 µM	-1.04
3.16228 µM	-0.932
10 µM	-0.0118
31.6228 µM	0.438
100 µM	3.69

CCCCNC(=O)OCC#CI [3-Iodo-2-propynyl-N-butylcarbamate]
Conditions	LDH release cytotoxicity [%]
0.0301998 µM	3.83
0.0955 µM	4.17
0.301997 µM	4.24
0.955 µM	4.49
3.01998 µM	4.53
9.55 µM	4.22
30.199752 µM	19.6
95.5 µM	82.9

Cc1cccc(N)c1 [3-Methylaniline]
Conditions	LDH release cytotoxicity [%]
0.03162 µM	-1.1
0.1 µM	-0.218
0.3162278 µM	-1
1 µM	-0.834
3.16228 µM	-0.813
10 µM	0.339
31.6228 µM	0.0207
100 µM	1.94

CC(=O)OCCC(C)C [3-Methylbutyl acetate]
Conditions	LDH release cytotoxicity [%]
0.03162 µM	-1.61
0.1 µM	-1.62
0.3162278 µM	-0.432
1 µM	-1.89
3.16228 µM	-0.737
10 µM	0.266
31.6228 µM	1.88
100 µM	2.4

Cc1cccc([N+](=O)[O-])c1 [3-Nitrotoluene]
Conditions	LDH release cytotoxicity [%]
0.0324133 µM	-0.599
0.1025 µM	-1.561
0.324134 µM	-1.45
1.025 µM	-0.805
3.24133 µM	-1.27
10.25 µM	-0.551
32.4133 µM	-0.321
102.5 µM	0.844

O=C(O)c1cccc(Oc2ccccc2)c1 [3-Phenoxybenzoic acid]
Conditions	LDH release cytotoxicity [%]
0.0253 µM	2.02
0.08 µM	1.68
0.252982 µM	1.75
0.8 µM	0.842
2.52982 µM	0.659
8 µM	-0.233
25.2982 µM	-0.367
80 µM	-1.57

N#Cc1cccnc1 [3-Pyridinecarbonitrile]
Conditions	LDH release cytotoxicity [%]
0.03162 µM	-1.36
0.1 µM	-2.41
0.3162278 µM	-2.8
1 µM	-2.872
3.16228 µM	-3.04
10 µM	-2.26
31.6228 µM	-2.04
100 µM	-1.31

CC(c1ccc(O)cc1)(c1ccc(O)cc1)c1ccc(O)cc1 [4,4',4''-Ethane-1,1,1-triyltriphenol]
Conditions	LDH release cytotoxicity [%]
0.03162 µM	-1.89
0.1 µM	-1.24
0.3162278 µM	-1.7
1 µM	-1.8
3.16228 µM	-0.727
10 µM	-1.47
31.6228 µM	-1.43
100 µM	-0.486

c1cc(-c2ccncc2)ccn1 [4,4'-Bipyridine]
Conditions	LDH release cytotoxicity [%]
0.03162 µM	-0.85
0.1 µM	-1.15
0.3162278 µM	-0.941
1 µM	-1.18
3.16228 µM	-1.05
10 µM	4.58
31.6228 µM	24
100 µM	18

Cc1cc(Cc2ccc(N)c(C)c2)ccc1N [4,4'-Diamino-3,3'-dimethyldiphenylmethane]
Conditions	LDH release cytotoxicity [%]
0.03162 µM	-1.54
0.1 µM	-0.939
0.3162278 µM	-0.759
1 µM	-1.39
3.16228 µM	-0.662
10 µM	-0.124
31.6228 µM	-0.39
100 µM	-0.749

Nc1ccc(Cc2ccc(N)cc2)cc1 [4,4'-Diaminobiphenyl methane]
Conditions	LDH release cytotoxicity [%]
0.03162 µM	-0.659
0.1 µM	-2.27
0.3162278 µM	-2.24
1 µM	-2.78
3.16228 µM	-2.52
10 µM	-2.46
31.6228 µM	-1.8
100 µM	0.228

CN(C)c1ccc(Cc2ccc(N(C)C)cc2)cc1 [4,4'-Methylenebis(N,N-dimethylaniline)]
Conditions	LDH release cytotoxicity [%]
0.03162 µM	-0.47
0.1 µM	-1.28
0.3162278 µM	-1.73
1 µM	-1.6
3.16228 µM	-1.29
10 µM	-1.04
31.6228 µM	-0.536
100 µM	0.0839

Nc1ccc(Oc2ccc(N)cc2)cc1 [4,4'-Oxydianiline]
Conditions	LDH release cytotoxicity [%]
0.031623 µM	-1.51
0.1 µM	-3.05
0.316228 µM	-1.18
1 µM	-2.52
3.16228 µM	-1.772
10 µM	-0.999
31.6228 µM	17
100 µM	62.8

C=CCc1cc(S(=O)(=O)c2ccc(O)c(CC=C)c2)ccc1O [4,4'-Sulfonylbis[2-(prop-2-en-1-yl)phenol]]
Conditions	LDH release cytotoxicity [%]
0.03162 µM	-0.87
0.1 µM	-2.88
0.3162278 µM	-1.86
1 µM	-2.39
3.16228 µM	-2.01
10 µM	-1.55
31.6228 µM	-1.16
100 µM	0.193

CC(C)(C)CC(C)(C)c1ccc(O)cc1 [4-(1,1,3,3-Tetramethylbutyl)phenol]
Conditions	LDH release cytotoxicity [%]
0.03162 µM	-1.49
0.1 µM	-1.58
0.3162278 µM	-1.966
1 µM	-1.68
3.16228 µM	-1.21
10 µM	-1.69
31.6228 µM	-0.473
100 µM	42.9

CCC(C)(C)C1CCC(O)CC1 (configuration not stated) [4-(2-Methylbutan-2-yl)cyclohexanol]
Conditions	LDH release cytotoxicity [%]
0.03162 µM	-0.419
0.1 µM	-1.92
0.3162278 µM	-1.25
1 µM	-1.82
3.16228 µM	-2.17
10 µM	-1.05
31.6228 µM	-1.3
100 µM	0.0243
